assay: Inhibition of human CYP1A1 expressed in HEK293 cells assessed as reduction in CYP1A1 mediated B[alpha]P-7,8- dihydrodiol induced-toxicity by measuring EC50 at 3 times of IC50 concentration by MTT assay (Rvb = 1.4 +/ 0.4 uM)

Q: For `O=c1cc(-c2ccccc2)oc2c1ccc1occc12` [LANCEOLATIN B], which EC50 is on record?
A: 14.4 µM

Q: Which EC50 does the source give for `COc1c(C(=O)/C=C(\O)c2ccccc2)ccc2occc12` [Pongamol] here?
A: 10.2 µM

Q: For `COc1c(-c2ccc3c(c2)OCO3)oc2c(ccc3occc32)c1=O` [Pongapin], which EC50 is on record?
A: 14.8 µM
